According to US20170050957A1, “4-AMINO-6-(HETEROCYCLIC)PICOLINATES AND 6-AMINO-2-(HETEROCYCLIC)PYRIMIDINE-4-CARBOXYLATES AND THEIR USE AS HERBICIDES” (Dow AgroSciences LLC, priority 2013, published 2017):
Where two headings read alike, the source gives them in different places. Values belong to the molecule of their own block, whether it stands above or below them.

Columns and labels:
[1] = tested on: Key Broadleaf Weed and Crop Species; assay: Post-emergent Test II herbicidal activity (Table 15); format: in vivo; conditions: post-emergence, 336 h, 14 d; for pest or weed control at 35 g/ha: 35 g ai/ha; for pest or weed control at 70 g/ha: 70 g ai/ha; for pest or weed control at 140 g/ha: 140 g ai/ha
How it was run: (§1)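 Plants grown in greenhouse (~15 h photoperiod, 23-29 °C day, 22-28 °C night) to first or second true leaf stage, then sprayed post-emergence at 187 L/ha with a high rate and 1/2×, 1/4×, 1/8× and 1/16× dilutions. Injury scored visually after 14 d, 0-100% versus untreated plants.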

[2] = tested on: Key Grass and Sedge Weeds as well as Grass Crops; assay: Post-emergent Test II herbicidal activity (Table 16); format: in vivo; conditions: post-emergence, 336 h, 14 d; for pest or weed control at 35 g/ha: 35 g ai/ha; for pest or weed control at 70 g/ha: 70 g ai/ha; for pest or weed control at 140 g/ha: 140 g ai/ha
How it was run: as §1

[3] = Abutilon theophrasti, velvetleaf (Abutilon theophrasti), read-out: Visual Growth Reduction (%) 14 Days After Application, ABUTH
[4] = Amaranthus retroflexus, redroot pigweed (Amaranthus retroflexus), read-out: Visual Growth Reduction (%) 14 Days After Application, AMARE
[5] = Brassica napus, oilseed rape, canola (Brassica napus), read-out: Visual Growth Reduction (%) 14 Days After Application, BRSNN
[6] = Chenopodium album, lambsquarters (Chenopodium album), read-out: Visual Growth Reduction (%) 14 Days After Application, CHEAL
[7] = Euphorbia heterophylla, wild poinsettia (Euphorbia heterophylla), read-out: Visual Growth Reduction (%) 14 Days After Application, EPHHL
[8] = Helianthus annuus, sunflower (Helianthus annuus), read-out: Visual Growth Reduction (%) 14 Days After Application, HELAN
[9] = Cyperus esculentus, yellow nutsedge (Cyperus esculentus), read-out: Visual Growth Reduction (%) 14 Days After Application, CYPES
[10] = Echinochloa crus-galli, barnyardgrass (Echinochloa crus-galli), read-out: Visual Growth Reduction (%) 14 Days After Application, ECHCG
[11] = Oryza sativa, rice (Oryza sativa), read-out: Visual Growth Reduction (%) 14 Days After Application, ORYSA
[12] = Setaria faberi, giant foxtail (Setaria faberi), read-out: Visual Growth Reduction (%) 14 Days After Application, SETFA
[13] = Triticum aestivum, wheat, spring (Triticum aestivum), read-out: Visual Growth Reduction (%) 14 Days After Application, TRZAS
[14] = Zea mays, maize, corn (Zea mays), read-out: Visual Growth Reduction (%) 14 Days After Application, ZEAMX

melting point: 221 to 224 °C
Structure (SMILES): COC(=O)c1nc(-c2ccc3[nH]ccc3c2)c(F)c(N)c1Cl [Compound 1.02, Methyl 4-amino-3-chloro-5-fluoro-6-(1H-indol-5-yl)picolinate]
pest or weed control at 35 g/ha [1, 3]: 0 to 29% | pest or weed control at 70 g/ha [1, 3]: 0 to 29% | pest or weed control at 140 g/ha [1, 3]: 0 to 29% | pest or weed control at 70 g/ha [1, 4]: 85 to 94% | pest or weed control at 140 g/ha [1, 4]: 85 to 94% | pest or weed control at 35 g/ha [1, 5]: 0 to 29% | pest or weed control at 70 g/ha [1, 5]: 0 to 29% | pest or weed control at 140 g/ha [1, 5]: 0 to 29% | pest or weed control at 35 g/ha [1, 6]: 75 to 84% | pest or weed control at 70 g/ha [1, 6]: 85 to 94% | pest or weed control at 140 g/ha [1, 6]: 95 to 100% | pest or weed control at 35 g/ha [1, 7]: 45 to 59% | pest or weed control at 70 g/ha [1, 7]: 45 to 59% | pest or weed control at 140 g/ha [1, 7]: 60 to 74% | pest or weed control at 35 g/ha [1, 8]: 45 to 59% | pest or weed control at 70 g/ha [1, 8]: 60 to 74% | pest or weed control at 140 g/ha [1, 8]: 60 to 74% | pest or weed control at 35 g/ha [2, 9]: 0 to 29% | pest or weed control at 70 g/ha [2, 9]: 0 to 29% | pest or weed control at 140 g/ha [2, 9]: 0 to 29% | pest or weed control at 35 g/ha [2, 10]: 0 to 29% | pest or weed control at 70 g/ha [2, 10]: 0 to 29% | pest or weed control at 140 g/ha [2, 10]: 45 to 59% | pest or weed control at 35 g/ha [2, 11]: 0 to 29% | pest or weed control at 70 g/ha [2, 11]: 0 to 29% | pest or weed control at 140 g/ha [2, 11]: 0 to 29% | pest or weed control at 35 g/ha [2, 12]: 0 to 29% | pest or weed control at 70 g/ha [2, 12]: 0 to 29% | pest or weed control at 140 g/ha [2, 12]: 0 to 29% | pest or weed control at 35 g/ha [2, 13]: 0 to 29% | pest or weed control at 70 g/ha [2, 13]: 0 to 29% | pest or weed control at 140 g/ha [2, 13]: 0 to 29% | pest or weed control at 35 g/ha [2, 14]: 0 to 29% | pest or weed control at 70 g/ha [2, 14]: 0 to 29% | pest or weed control at 140 g/ha [2, 14]: 0 to 29%

melting point: 125 to 127 °C
Structure (SMILES): COC(=O)c1nc(-c2ccc3c(ccn3C)c2)c(F)c(N)c1Cl [Compound 1.03]
pest or weed control at 35 g/ha [1, 3]: 0 to 29% | pest or weed control at 70 g/ha [1, 3]: 0 to 29% | pest or weed control at 140 g/ha [1, 3]: 75 to 84% | pest or weed control at 140 g/ha [1, 4]: 85 to 94% | pest or weed control at 35 g/ha [1, 5]: 0 to 29% | pest or weed control at 70 g/ha [1, 5]: 0 to 29% | pest or weed control at 140 g/ha [1, 5]: 0 to 29% | pest or weed control at 35 g/ha [1, 6]: 85 to 94% | pest or weed control at 70 g/ha [1, 6]: 85 to 94% | pest or weed control at 140 g/ha [1, 6]: 95 to 100% | pest or weed control at 35 g/ha [1, 7]: 95 to 100% | pest or weed control at 70 g/ha [1, 7]: 95 to 100% | pest or weed control at 140 g/ha [1, 7]: 85 to 94% | pest or weed control at 35 g/ha [1, 8]: 0 to 29% | pest or weed control at 70 g/ha [1, 8]: 0 to 29% | pest or weed control at 140 g/ha [1, 8]: 45 to 59% | pest or weed control at 35 g/ha [2, 9]: 0 to 29% | pest or weed control at 70 g/ha [2, 9]: 0 to 29% | pest or weed control at 140 g/ha [2, 9]: 0 to 29% | pest or weed control at 35 g/ha [2, 10]: 0 to 29% | pest or weed control at 70 g/ha [2, 10]: 0 to 29% | pest or weed control at 140 g/ha [2, 10]: 60 to 74% | pest or weed control at 35 g/ha [2, 11]: 0 to 29% | pest or weed control at 70 g/ha [2, 11]: 0 to 29% | pest or weed control at 140 g/ha [2, 11]: 0 to 29% | pest or weed control at 35 g/ha [2, 12]: 0 to 29% | pest or weed control at 70 g/ha [2, 12]: 0 to 29% | pest or weed control at 140 g/ha [2, 12]: 0 to 29% | pest or weed control at 35 g/ha [2, 13]: 0 to 29% | pest or weed control at 70 g/ha [2, 13]: 0 to 29% | pest or weed control at 140 g/ha [2, 13]: 0 to 29% | pest or weed control at 35 g/ha [2, 14]: 0 to 29% | pest or weed control at 70 g/ha [2, 14]: 0 to 29% | pest or weed control at 140 g/ha [2, 14]: 0 to 29%

melting point: 180 to 182 °C
Structure (SMILES): Nc1c(F)c(-c2ccc3[nH]ccc3c2)nc(C(=O)O)c1Cl [Compound 1.04]
pest or weed control at 35 g/ha [1, 3]: 45 to 59% | pest or weed control at 70 g/ha [1, 3]: 0 to 29% | pest or weed control at 140 g/ha [1, 3]: 0 to 29% | pest or weed control at 35 g/ha [1, 4]: 60 to 74% | pest or weed control at 70 g/ha [1, 4]: 60 to 74% | pest or weed control at 140 g/ha [1, 4]: 60 to 74% | pest or weed control at 35 g/ha [1, 5]: 30 to 44% | pest or weed control at 70 g/ha [1, 5]: 45 to 59% | pest or weed control at 140 g/ha [1, 5]: 45 to 59% | pest or weed control at 35 g/ha [1, 6]: 45 to 59% | pest or weed control at 70 g/ha [1, 6]: 60 to 74% | pest or weed control at 140 g/ha [1, 6]: 60 to 74% | pest or weed control at 35 g/ha [1, 7]: 95 to 100% | pest or weed control at 70 g/ha [1, 7]: 95 to 100% | pest or weed control at 140 g/ha [1, 7]: 95 to 100% | pest or weed control at 35 g/ha [1, 8]: 45 to 59% | pest or weed control at 70 g/ha [1, 8]: 45 to 59% | pest or weed control at 140 g/ha [1, 8]: 85 to 94% | pest or weed control at 35 g/ha [2, 9]: 0 to 29% | pest or weed control at 70 g/ha [2, 9]: 0 to 29% | pest or weed control at 140 g/ha [2, 9]: 0 to 29% | pest or weed control at 35 g/ha [2, 10]: 0 to 29% | pest or weed control at 140 g/ha [2, 10]: 85 to 94% | pest or weed control at 35 g/ha [2, 11]: 0 to 29% | pest or weed control at 70 g/ha [2, 11]: 0 to 29% | pest or weed control at 140 g/ha [2, 11]: 0 to 29% | pest or weed control at 35 g/ha [2, 12]: 0 to 29% | pest or weed control at 70 g/ha [2, 12]: 0 to 29% | pest or weed control at 140 g/ha [2, 12]: 0 to 29% | pest or weed control at 35 g/ha [2, 13]: 0 to 29% | pest or weed control at 70 g/ha [2, 13]: 0 to 29% | pest or weed control at 140 g/ha [2, 13]: 0 to 29% | pest or weed control at 35 g/ha [2, 14]: 0 to 29% | pest or weed control at 70 g/ha [2, 14]: 0 to 29% | pest or weed control at 140 g/ha [2, 14]: 0 to 29%
